The target in data set [1] is T1, Aldehyde dehydrogenase 1A3 (ALDH1A3) (Homo sapiens, UniProt P47895).
T1 sequence (P47895 2-512): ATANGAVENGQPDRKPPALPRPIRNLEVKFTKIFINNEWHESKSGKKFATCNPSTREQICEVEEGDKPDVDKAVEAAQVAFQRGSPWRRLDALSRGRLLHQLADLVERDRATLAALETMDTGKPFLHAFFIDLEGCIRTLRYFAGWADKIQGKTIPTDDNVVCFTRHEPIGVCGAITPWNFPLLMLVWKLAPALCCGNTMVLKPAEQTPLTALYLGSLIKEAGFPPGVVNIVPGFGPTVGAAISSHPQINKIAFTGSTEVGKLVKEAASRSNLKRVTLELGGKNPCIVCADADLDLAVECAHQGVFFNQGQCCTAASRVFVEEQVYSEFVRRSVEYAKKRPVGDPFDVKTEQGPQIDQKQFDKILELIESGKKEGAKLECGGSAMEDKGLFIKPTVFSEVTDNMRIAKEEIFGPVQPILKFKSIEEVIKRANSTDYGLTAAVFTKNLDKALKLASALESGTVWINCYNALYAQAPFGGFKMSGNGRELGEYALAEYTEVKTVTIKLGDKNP
The data set is described as follows: X-ray crystal structure of the complex with NR6 (protein preincubated with […] NAD+). In kind it is binding.

Data set [2] deals with the molecule itself. The data set is described as follows: crystal structure; ALDH1A3 at 8 mg/mL preincubated with 1 mM NAD+ and 300 uM NR6; sitting drop vapor diffusion, 2.4 M sodium malonate pH 7.0, 20 °C; space group P2(1)22(1), two molecules per asymmetric unit.

This note sets out measurements from paper PMC7835878, “A Selective Competitive Inhibitor of Aldehyde Dehydrogenase 1A3 Hinders Cancer Cell Growth, Invasiveness and Stemness In Vitro” (Cancers, 2021).

With `NC(=O)c1ccc[n+]([C@@H]2O[C@H](COP(=O)([O-])OP(=O)(O)OC[C@H]3O[C@@H](n4cnc5c(N)ncnc54)[C@H](O)[C@@H]3O)[C@@H](O)[C@H]2O)c1` [NAD+], the “X-ray crystal structure of the complex with NR6 (protein preincubated with 1 mM)” value in data set [1] was “both are bonded with one molecule of NAD^+ and one molecule of NR6”.

B1: human aldehyde dehydrogenase 1A3 (enzyme)
chain: MATANGAVENGQPDRKPPALPRPIRNLEVKFTKIFINNEWHESKSGKKFATCNPSTREQICEVEEGDKPDVDKAVEAAQVAFQRGSPWRRLDALSRGRLLHQLADLVERDRATLAALETMDTGKPFLHAFFIDLEGCIRTLRYFAGWADKIQGKTIPTDDNVVCFTRHEPIGVCGAITPWNFPLLMLVWKLAPALCCGNTMVLKPAEQTPLTALYLGSLIKEAGFPPGVVNIVPGFGPTVGAAISSHPQINKIAFTGSTEVGKLVKEAASRSNLKRVTLELGGKNPCIVCADADLDLAVECAHQGVFFNQGQCCTAASRVFVEEQVYSEFVRRSVEYAKKRPVGDPFDVKTEQGPQIDQKQFDKILELIESGKKEGAKLECGGSAMEDKGLFIKPTVFSEVTDNMRIAKEEIFGPVQPILKFKSIEEVIKRANSTDYGLTAAVFTKNLDKALKLASALESGTVWINCYNALYAQAPFGGFKMSGNGRELGEYALAEYTEVKTVTIKLGDKNP
notes: Aldehyde dehydrogenase 1A3 (ALDH1A3), human, recombinant; also called ALDH1A3; hALDH1A3; source: recombinant, purified
With B1, the binding result in data set [2] was “binds”.
